The source of these data is patent US9056865B2, “Pyridine-2-derivatives as smoothened receptor modulators” (Pfizer Inc., priority 2010, dated 2015).

pIC50: −log10 of the molar value.

In test [1] the target is human Smo (Homo sapiens (Human), UniProt Q99835). The test is described as follows: Smo radioligand competition binding assay. The following applies: for inhibition at 0.05 µM: 0.05 μM test compound, read-out: Smo % inh. @ 0.05 μM. Put shortly:
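Membranes from HEK293 cells expressing surface human Smo 181-781 (40 μg protein/well) incubated 2 h at room temperature with test compound and tritiated Smo antagonist (3 nM), pH 7.5 Tris buffer; filtration and scintillation counting. Non-specific binding defined with 30 μM cold antagonist; IC50 from four-parameter sigmoidal fit.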
In general terms: Loss of bound radioactivity is the signal in a displacement assay; it reports binding, not function.

In test [2] the test system is Gli-Luc/MEF cells. The test is described as follows: Gli-Luc/MEF assay. To be noted: Mus musculus, MEF; Shh-stimulated luciferase, 48 hours. In kind it is cell-based, mouse. An outline of the steps:
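Mouse embryonic fibroblasts from Gli-Luc transgenic mice (luciferase under Gli response element) dosed with compounds (final […], 3-fold series), then stimulated with recombinant mouse Shh at final 2 μg/mL. After 48 h at 37 °C, luminescence read by Bright-Glo; IC50 from inhibition of Shh-induced signal.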

Chain of human Smo (Q99835 181-787): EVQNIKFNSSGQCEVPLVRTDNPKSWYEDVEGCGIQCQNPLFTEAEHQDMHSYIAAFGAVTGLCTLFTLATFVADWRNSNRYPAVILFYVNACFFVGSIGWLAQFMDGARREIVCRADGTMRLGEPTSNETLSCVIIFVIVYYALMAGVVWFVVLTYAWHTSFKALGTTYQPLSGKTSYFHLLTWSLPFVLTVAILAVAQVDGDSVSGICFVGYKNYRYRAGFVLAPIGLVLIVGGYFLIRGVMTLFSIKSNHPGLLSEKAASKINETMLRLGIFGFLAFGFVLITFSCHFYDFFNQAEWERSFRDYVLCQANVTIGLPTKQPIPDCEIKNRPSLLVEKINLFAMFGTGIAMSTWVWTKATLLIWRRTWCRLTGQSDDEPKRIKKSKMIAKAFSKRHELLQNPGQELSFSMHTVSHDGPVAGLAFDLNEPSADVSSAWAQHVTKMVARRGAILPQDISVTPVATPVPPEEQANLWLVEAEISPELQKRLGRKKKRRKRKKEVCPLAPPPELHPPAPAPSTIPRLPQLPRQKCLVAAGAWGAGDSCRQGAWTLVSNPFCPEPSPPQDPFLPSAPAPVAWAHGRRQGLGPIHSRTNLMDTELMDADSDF

As to `Cc1cccnc1-c1cc(N2CCC(CNCCS(C)(=O)=O)CC2)ncc1Cl` [Example A-96, N-{[1-(5′-chloro-3-methyl-2,4′-bipyridin-2′-yl)piperidin-4-yl]methyl}-2-(methylsulfonyl)ethanamine], in test [1], the pIC50 was 6.99 and the inhibition at 0.05 µM was 84.1%. Further, the pIC50 in test [2] is 7.20.

For `Cc1cccnc1-c1nc(N2CCC(CS(C)(=O)=O)CC2)ncc1Cl` [Example A-97, 5-chloro-4-(3-methylpyridin-2-yl)-2-{4-[(methylsulfonyl)methyl]piperidin-1-yl}pyrimidine], in test [1], the pIC50 was 7.52 and the inhibition at 0.05 µM is 95.4%. The pIC50 in test [2] is 7.88.

As to `Cc1cnc(-c2cc(N3CCC(CS(C)(=O)=O)CC3)ncc2Cl)c(C)c1` [Example A-98, 5′-chloro-3,5-dimethyl-2′-{4-[(methylsulfonyl)methyl]piperidin-1-yl}-2,4′-bipyridine], in test [1], the pIC50 is 7.91 and the inhibition at 0.05 µM came out at 96.6%. Also, the negative logarithm of the IC50 (pIC50) in test [2] is 8.03.

On to `CS(=O)(=O)CCC(=O)N1CCN(c2ccc(Cl)c(-c3ccccn3)n2)CC1` [Example A-99, 3-chloro-6-{4-[3-(methylsulfonyl)propanoyl]piperazin-1-yl}-2,2′-bipyridine], for which, in test [1], the pIC50 is 7.48 and the inhibition at 0.05 µM was 94.4%. Also, in test [2], the pIC50 is 7.62.

`CC(=O)N1CCN(c2cc(-c3ncc(C)cc3C)c(Cl)cn2)CC1` [Example A-100, 2′-(4-acetylpiperazin-1-yl)-5′-chloro-3,5-dimethyl-2,4′-bipyridine]: in test [1], the pIC50 is 6.95 and the inhibition at 0.05 µM turned out to be 85.6%. Besides, the pIC50 in test [2] is 7.30.

As to `COC(=O)N1CCN(c2cc(-c3ncc(C)cc3C)c(Cl)cn2)CC1` [Example A-101, methyl 4-(5′-chloro-3,5-dimethyl-2,4′-bipyridin-2′-yl)piperazine-1-carboxylate], in test [1], the pIC50 was 7.14 and the inhibition at 0.05 µM is 89%. The compound further gave a pIC50 in test [2] of 7.52.

In the case of `Cc1cnc(-c2cc(N3CCN(C(=O)CO)CC3)ncc2Cl)c(C)c1` [Example A-102, 2-[4-(5′-chloro-3,5-dimethyl-2,4′-bipyridin-2′-yl)piperazin-1-yl]-2-oxoethanol], the pIC50 in test [1] was 7.24; in test [2], 7.22. For the same compound, in test [1], the inhibition at 0.05 µM is 84%.

Regarding `Cc1cnc(-c2cc(N3CCN(C(=O)CC(C)(C)O)CC3)ncc2Cl)c(C)c1` [Example A-103, 4-[4-(5′-chloro-3,5-dimethyl-2,4′-bipyridin-2′-yl)piperazin-1-yl]-2-methyl-4-oxobutan-2-ol], in test [1], the pIC50 was 7.71 and the inhibition at 0.05 µM was 98%. In test [2], the pIC50 is 7.93.

Take `Cc1cnc(-c2cc(N3CCN(S(C)(=O)=O)CC3)ncc2Cl)c(C)c1` [Example A-104, 5′-chloro-3,5-dimethyl-2′-[4-(methylsulfonyl)piperazin-1-yl]-2,4′-bipyridine]: the pIC50 is 7.44 in test [1] and 7.90 in test [2]. Moreover, in test [1], the inhibition at 0.05 µM was determined as 92.9%.

Consider `Cc1cnc(-c2cc(N3CCN(C(=O)CN(C)C)CC3)ncc2Cl)c(C)c1` [Example A-105, 2-[4-(5′-chloro-3,5-dimethyl-2,4′-bipyridin-2′-yl)piperazin-1-yl]-N,N-dimethyl-2-oxoethanamine], for which the pIC50 is 7.08 in test [1] and 7.91 in test [2]. The inhibition at 0.05 µM in test [1] was 84.5%.

Take `Cc1cnc(-c2cc(N3CCN(C(=O)CCO)CC3)ncc2Cl)c(C)c1` [Example A-106, 3-[4-(5′-chloro-3,5-dimethyl-2,4′-bipyridin-2′-yl)piperazin-1-yl]-3-oxopropan-1-ol]: in test [1], the pIC50 was 7.18 and the inhibition at 0.05 µM is 86%. The same compound showed a pIC50 in test [2] of 7.44.

For the compound `Cc1cccnc1-c1cc(N2[C@@H]3CC[C@H]2CN(C(=O)CC(C)(C)O)C3)ncc1Cl` [Example A-107, 1-[(1R,5S)-8-(5′-chloro-3-methyl-2,4′-bipyridin-2′-yl)-3,8-diazabicyclo[3.2.1]oct-3-yl]-3-hydroxy-3-methylbutan-1-one], the inhibition at 0.05 µM in test [1] worked out at 82.7%. In test [2], the pIC50 is 7.38.

Turning to `Cc1cc(F)cnc1-c1cc(N2CCC(NS(C)(=O)=O)CC2)ncc1Cl` [Example A-108, N-[1-(5′-chloro-5-fluoro-3-methyl-2,4′-bipyridin-2′-yl)piperidin-4-yl]methanesulfonamide], in test [1], the pIC50 was 7.68 and the inhibition at 0.05 µM turned out to be 91.5%. Further, the pIC50 in test [2] was 7.95.

Regarding `Cc1cc(Cl)cnc1-c1cc(N2CCC(NS(C)(=O)=O)CC2)ncc1Cl` [Example A-109, N-[1-(5,5′-dichloro-3-methyl-2,4′-bipyridin-2′-yl)piperidin-4-yl]methanesulfonamide], in test [1], the pIC50 was 7.69 and the inhibition at 0.05 µM worked out at 97.4%. The pIC50 in test [2] is 8.17.

As for `COCCS(=O)(=O)N1CCN(c2cc(-c3ncc(C)cc3C)c(Cl)cn2)CC1` [Example A-110, 5′-chloro-2′-{4-[(2-methoxyethyl)sulfonyl]piperazin-1-yl}-3,5-dimethyl-2,4′-bipyridine], in test [1], the pIC50 is 7.53 and the inhibition at 0.05 µM turned out to be 94.4%. This compound also showed a pIC50 in test [2] of 7.91.

On to `Cc1cnc(-c2cc(N3CCN(S(=O)(=O)CCO)CC3)ncc2Cl)c(C)c1` [Example A-111, 2-{[4-(5′-chloro-3,5-dimethyl-2,4′-bipyridin-2′-yl)piperazin-1-yl]sulfonyl}ethanol], for which, in test [1], the pIC50 is 7.63 and the inhibition at 0.05 µM worked out at 95%. In test [2], this compound showed a pIC50 of 7.99.

As to `Cc1cnc(-c2cc(N3CCN(CCS(C)(=O)=O)CC3)ncc2Cl)c(C)c1` [Example A-112, 5′-chloro-3,5-dimethyl-2′-{4-[2-(methylsulfonyl)ethyl]piperazin-1-yl}-2,4′-bipyridine], the pIC50 is 6.91 in test [1] and 7.60 in test [2]. For the same compound, the inhibition at 0.05 µM in test [1] is 72.9%.

For `Cc1cnc(-c2cc(N3CCC(NC(=O)CO)CC3)ncc2Cl)c(C)c1` [Example A-113, N-[1-(5′-chloro-3,5-dimethyl-2,4′-bipyridin-2′-yl)piperidin-4-yl]-2-hydroxyacetamide], in test [1], the pIC50 was 7.25 and the inhibition at 0.05 µM was determined as 84%. The pIC50 in test [2] was 7.93.

In the case of `Cc1cnc(-c2cc(N3CCC(NC(=O)CN(C)C)CC3)ncc2Cl)c(C)c1` [Example A-114, N-(1-(5′-chloro-3,5-dimethyl-[2,4′-bipyridin]-2′-yl)piperidin-4-yl)-2-(dimethylamino)acetamide], the pIC50 is 7.72 in test [1] and 8.41 in test [2]. Further, in test [1], the inhibition at 0.05 µM is 94.5%.

In the case of `Cc1ccc(-c2cccc(N3CCC(NS(C)(=O)=O)CC3)n2)nc1` [Example A-115, N-[1-(5′-methyl-2,2′-bipyridin-6-yl)piperidin-4-yl]methanesulfonamide], in test [1], the pIC50 was 7.66 and the inhibition at 0.05 µM is 93%. The same compound had a pIC50 in test [2] of 7.80.

For the compound `Cc1ccc(-c2nc(N3CCC(NS(C)(=O)=O)CC3)ccc2Cl)nc1` [Example A-117, N-[1-(3-chloro-5′-methyl-2,2′-bipyridin-6-yl)piperidin-4-yl]methanesulfonamide], in test [1], the pIC50 was 7.77 and the inhibition at 0.05 µM was determined as 96%. This compound showed a pIC50 in test [2] of 7.96.

For `Cc1cnc(-c2cc(N3CCC(CS(N)(=O)=O)CC3)ncc2Cl)c(C)c1` [Example A-118, 1-[1-(5′-chloro-3,5-dimethyl-2,4′-bipyridin-2′-yl)piperidin-4-yl]methanesulfonamide], in test [1], the pIC50 is 7.95 and the inhibition at 0.05 µM stood at 93.8%. Moreover, the pIC50 in test [2] was 8.07.

Take `Cc1ccc(-c2nc(N3CCC(NS(C)(=O)=O)CC3)ncc2Cl)nc1` [Example A-119, N-{1-[5-chloro-4-(5-methylpyridin-2-yl)pyrimidin-2-yl]piperidin-4-yl}methanesulfonamide]: in test [1], the pIC50 is 7.23 and the inhibition at 0.05 µM was 88.5%. Also, the pIC50 in test [2] was 7.64.

`Cc1ccc(-c2nc(N3CCC(NS(C)(=O)=O)CC3)ccc2Br)nc1` [Example A-120, N-[1-(3-bromo-5′-methyl-2,2′-bipyridin-6-yl)piperidin-4-yl]methanesulfonamide]: in test [1], the pIC50 is 7.40 and the inhibition at 0.05 µM came out at 93%. The pIC50 in test [2] was 7.54.

Turning to `CCS(=O)(=O)NC1CCN(c2cc(-c3ncc(C)cc3C)c(Cl)cn2)CC1` [Example A-121, N-[1-(5′-chloro-3,5-dimethyl-2,4′-bipyridin-2′-yl)piperidin-4-yl]ethanesulfonamide], in test [1], the pIC50 was 7.94 and the inhibition at 0.05 µM stood at 101%. For the same compound, the pIC50 in test [2] is 8.37.

As for `Cc1cnc(-c2cc(N3CCC(NC(=O)CCS(C)(=O)=O)CC3)ncc2Cl)c(C)c1` [Example A-122, N-[1-(5′-chloro-3,5-dimethyl-2,4′-bipyridin-2′-yl)piperidin-4-yl]-3-(methylsulfonyl)propanamide], in test [1], the pIC50 is 7.83 and the inhibition at 0.05 µM amounted to 103%. Moreover, the pIC50 in test [2] is 8.26.

For `COCCS(=O)(=O)NC1CCN(c2ccc(Cl)c(-c3ccccn3)n2)CC1` [Example A-123, N-[1-(3-chloro-2,2′-bipyridin-6-yl)piperidin-4-yl]-2-methoxyethanesulfonamide], in test [1], the pIC50 was 7.57 and the inhibition at 0.05 µM amounted to 90.4%. Further, the pIC50 in test [2] was 7.85.

With `Cc1cc(C#N)cnc1-c1cc(N2CCC(NS(C)(=O)=O)CC2)ncc1Cl` [Example A-125, N-[1-(5′-chloro-5-cyano-3-methyl-2,4′-bipyridin-2′-yl)piperidin-4-yl]methanesulfonamide], in test [1], the pIC50 is 7.02 and the inhibition at 0.05 µM came out at 82.3%. Moreover, in test [2], the pIC50 is 7.49.

For orientation: pIC50 means the negative decadic logarithm of the IC50, by convention in mol/L. Higher therefore signals a small IC50.
